Results published in US20260206757A1, “METHODS OF CONTROLLING UNDESIRABLE PLANTS WITH PPO HERBICIDES AND COMBINATIONS IN HERBICIDE TOLERANT CROP PLANTS” (BASF AGRO B.V., priority 2022, published 2026).

Columns and labels:
Setaria faberi = assay: Field experiment, pre-emergence herbicidal activity on bare ground; type: in vivo; details: SETFA, Preem, Saflufenacil 50, Flumioxazin 71.4 g ai/ha
Protocol: (§1) Trial Objective: Efficacy of Saflufenacil in tank mix with Flumioxazin applied in pre-emergence of the weeds on bare ground.
(§2) On field test sites, natural weed infestation was treated, pre-emergence of the weeds on bare soil or post-emergence of the weeds.
(§3) For the pre-emergence treatment, the active compounds, suspended or emulsified in water, were applied by means of finely distributing nozzles on bare ground.
(§4) In the following experiments, the herbicidal activity for the individual herbicidal compositions (solo and mixture applications) was assessed up to 36 days after treatment (DAT). The assessments for the damage on undesired weeds caused by the chemical compositions was carried out using a scale from 0 to 100%, compared to the untreated control plants. Here, 0 means no damage and 100 means complete destruction of the plants.
(§5) [formula] • where X=effect in percent using herbicide (A) at an application rate a; • Y=effect in percent using herbicide (B) at an application rate b; • E=expected effect (in %) of herbicide (A)+herbicide (B) at application rates a+b.
(§6) The value E corresponds to the effect (plant damage or injury) which is to be expected if the activity of the individual compounds is additive. If the observed effect is higher than the value E calculated according to the Colby equation, a synergistic effect is present.

Digitaria sanguinalis = assay: as above; type: in vivo; details: DIGSA, Preem, Saflufenacil 25, Flumioxazin 71.4 g ai/ha
Protocol: as §1, §2, §3, §4, §5, §6

Amaranthus palmeri = assay: as above; type: in vivo; details: AMAPA, Preem, Saflufenacil 25, Flumioxazin 71.4 g ai/ha
Protocol: as §1, §2, §3, §4, §5, §6

Ambrosia trifida = assay: as above; type: in vivo; details: AMBTR, Preem, Saflufenacil 50, Flumioxazin 71.4 g ai/ha
Protocol: as §1, §2, §3, §4, §5, §6

Urochloa texana = assay: as above; type: in vivo; details: PANTE
Protocol: as §1
(§7) Trial Objective: Efficacy of Saflufenacil in tank mix with Sulfentrazone applied in pre-emergence of the weeds on bare ground.
as §2, §3, §4, §5, §6

Eleusine indica = assay: as above; type: in vivo; details: ELEIN
Protocol: as §1, §7, §2, §3, §4, §5, §6

Setaria viridis = assay: Greenhouse experiment, post emergence herbicidal activity; type: in vivo; details: SETVI
Protocol: (§8) For the post emergence treatment, the plants were first grown to the 2 to 4 leaf stage (GS 12/14). The plants were cultivated due to their individual requirements at 10-25° C. and 20-35° C. The plants were irrigated as required.
(§9) Here, the herbicidal compositions were suspended or emulsified in water as distribution medium and sprayed using finely distributing nozzles. 1% methylated seed oil (MSO) has been added as adjuvant to each of the solo and mixture treatments.
(§10) In the greenhouse experiments, the herbicidal activity for the individual herbicidal compositions (solo and mixture applications) was assessed 20/21 days after treatment (DAT).
(§11) The evaluation for the damage on undesired weeds caused by the chemical compositions was carried out using a scale from 0 to 100%, compared to the untreated control plants. Here, 0 means no damage and 100 means complete destruction of the plants.

Ambrosia artemisiifolia = assay: as above; type: in vivo; details: AMBEL
Protocol: as §8, §9, §10, §11

Polygonum aviculare = assay: as above; type: in vivo; details: POLAV
Protocol: as §8, §9, §10, §11

Sorghum halepense = assay: as above; type: in vivo; details: SORHA
Protocol: as §8, §9, §10, §11

Sonchus arvensis = assay: as above; type: in vivo; details: SONAR
Protocol: as §8, §9, §10, §11

Hibiscus trionum = assay: as above; type: in vivo; details: HIBTR
Protocol: as §8, §9, §10, §11

Abutilon theophrasti = assay: as above; type: in vivo; details: ABUTH
Protocol: as §8, §9, §10, §11

Echinochloa crus-galli = assay: as above; type: in vivo; details: ECHCG
Protocol: as §8, §9, §10, §11

Convolvulus arvensis = assay: as above; type: in vivo; details: CONAR
Protocol: as §8, §9, §10, §11

Papaver rhoeas = assay: as above; type: in vivo; details: PAPRH
Protocol: as §8, §9, §10, §11

Erigeron canadensis = assay: as above; type: in vivo; details: ERICA
Protocol: as §8, §9, §10, §11

Matricaria chamomilla = assay: as above; type: in vivo; details: MATCH
Protocol: as §8, §9, §10, §11

Mercuralis annua = assay: as above; type: in vivo; details: MERAN
Protocol: as §8, §9, §10, §11

Chenopodium album = assay: as above; type: in vivo; details: CHEAL
Protocol: as §8, §9, §10, §11

HELAN w F(383)I = assay: Greenhouse experiment, crop safety of PPO inhibitor tolerant sunflower; type: in vivo, Helianthus annuus; details: scale 0 to 100%
Protocol: as §8, §9, §10, §11

[1] = Preem, Saflufenacil 50, Flumioxazin 71.4 g ai/ha
[2] = Preem, Saflufenacil 25, Flumioxazin 71.4 g ai/ha
[3] = BBCH 12-14, Flumioxazin 0.5, Halauxifen 1 g ai/ha
[4] = BBCH 12-14, Flumioxazin 2, Tribenuron-methyl 6 g ai/ha
[5] = BBCH 12-14, Saflufenacil 1, Flumioxazin 2 g ai/ha
[6] = BBCH 12-14, Flumioxazin 0.5, Pyraflufen-ethyl 1.5 g ai/ha
[7] = BBCH 12-14, Saflufenacil 4, Flumioxazin 2 g ai/ha
[8] = BBCH 12-14, Flumioxazin 0.5, Bifenox 168 g ai/ha
[9] = BBCH 12-14, Flumioxazin 2, Halauxifen 1 g ai/ha
[10] = BBCH 12-14, Flumioxazin 0.5, Imazamox 10 g ai/ha
[11] = BBCH 12-14, Saflufenacil 0.5, Flumioxazin 2 g ai/ha
[12] = BBCH 12-14, Flumioxazin 2, Fomesafen 123 g ai/ha
[13] = preemergence, Saflufenacil 25, Sulfentrazone 210 g ai/ha
[14] = BBCH 12-14, Saflufenacil 1, Bifenox 168 g ai/ha
[15] = BBCH 12-14, Saflufenacil 1, Imazamox 10 g ai/ha
[16] = BBCH 12-14, Saflufenacil 0.5, Clethodim 30 g ai/ha
[17] = BBCH 12-14, Saflufenacil 0.5, Bifenox 168 g ai/ha

C#CCN1C(=O)COc2cc(F)c(N3C(=O)C4=C(CCCC4)C3=O)cc21 [Flumioxazin, 2-[7-fluoro-3,4-dihydro-3-oxo-4-(2-propyn-1-yl)-2H-1,4-benzoxazin-6-yl]-4,5,6,7-tetrahydro-1H-isoindole-1,3 (2H)-dione]
% Herbicidal activity (Setaria faberi): 72%
% Herbicidal activity (Digitaria sanguinalis): 88%
% Herbicidal activity (Amaranthus palmeri): 85%
% Herbicidal activity (Ambrosia trifida): 65%
% Herbicidal activity (Urochloa texana; [1]): 35%
% Herbicidal activity (Eleusine indica; [2]): 80%
% Herbicidal activity (Setaria viridis; [3]): 30%
% Herbicidal activity (Setaria viridis; [4]): 70%
% Herbicidal activity (Setaria viridis; [5]): 65%
% Herbicidal activity (Ambrosia artemisiifolia; BBCH 12-14, Flumioxazin 4, Imazamox 10 g ai/ha): 95%
% Herbicidal activity (Polygonum aviculare; [6]): 45%
% Herbicidal activity (Polygonum aviculare; BBCH 12-14, Flumioxazin 4, Bifenox 168 g ai/ha): 95%
% Herbicidal activity (Polygonum aviculare; [5]): 80%
% Herbicidal activity (Sorghum halepense; [7]): 50%
% Herbicidal activity (Sonchus arvensis; [8]): 50%
% Herbicidal activity (Sonchus arvensis; [6]): 50%
% Herbicidal activity (Sonchus arvensis; [9]): 50%
% Herbicidal activity (Hibiscus trionum; [10]): 75%
% Herbicidal activity (Hibiscus trionum; [11]): 90%
% Herbicidal activity (Abutilon theophrasti; BBCH 12-14, Flumioxazin 1, Imazamox 10 g ai/ha): 90%
% Herbicidal activity (Abutilon theophrasti; BBCH 12-14, Flumioxazin 2, Bifenox 168 g ai/ha): 98%
% Herbicidal activity (Echinochloa crus-galli; [12]): 55%
% Herbicidal activity (Convolvulus arvensis; BBCH 12-14, Flumioxazin 0.5, Fomesafen 123 g ai/ha): 65%
% Herbicidal activity (Convolvulus arvensis; [3]): 65%
% Herbicidal activity (Convolvulus arvensis; BBCH12-14, Flumioxazin 0.5, Pyraflufen-ethyl 1.5 g ai/ha): 65%
% Herbicidal activity (Papaver rhoeas; [8]): 85%
% Herbicidal activity (Papaver rhoeas; [3]): 85%
% Herbicidal activity (Papaver rhoeas; [4]): 85%
% Herbicidal activity (Erigeron canadensis; BBCH 12-14, Flumioxazin 1, Pyraflufen-ethyl 1.5 g ai/ha): 60%
% Herbicidal activity (Erigeron canadensis; [5]): 75%
% Herbicidal activity (Matricaria chamomilla; BBCH 12-14, Flumioxazin 1, Fomesafen 123 g ai/ha): 60%
% Herbicidal activity (Matricaria chamomilla; [9]): 65%
% Herbicidal activity (Matricaria chamomilla; [5]): 75%
% Herbicidal activity (Mercuralis annua; [10]): 70%
% Herbicidal activity (Chenopodium album; BBCH 12-14, Flumioxazin 1, Bifenox 168 g ai/ha): 70%
% Herbicidal activity (Chenopodium album; [12]): 70%
Observed crop damage 21 days after treatment (HELAN w F(383)I; [8]): 15%
Observed crop damage 21 days after treatment (HELAN w F(383)I; [3]): 15%

CC(C)N(C)S(=O)(=O)NC(=O)c1cc(-n2c(=O)cc(C(F)(F)F)n(C)c2=O)c(F)cc1Cl [Saflufenacil, 2-chloro-5-[3,6-dihydro-3-methyl-2,6-dioxo-4-(trifluoromethyl)-1-(2H)pyrimidinyl]-4-fluoro-N-[[methyl (1-methylethyl)amino]-sulfonyl]benzamide]
% Herbicidal activity (Setaria faberi): 37%
% Herbicidal activity (Digitaria sanguinalis): 7%
% Herbicidal activity (Amaranthus palmeri): 27%
% Herbicidal activity (Ambrosia trifida): 67%
% Herbicidal activity (Urochloa texana; [1]): 13%
% Herbicidal activity (Urochloa texana; [13]): 20%
% Herbicidal activity (Eleusine indica; [2]): 3%
% Herbicidal activity (Eleusine indica; [13]): 8%
% Herbicidal activity (Setaria viridis; BBCH 12-14, Saflufenacil 0.5, Imazamox 10 g ai/ha): 25%
% Herbicidal activity (Setaria viridis; [5]): 70%
% Herbicidal activity (Ambrosia artemisiifolia; [14]): 80%
% Herbicidal activity (Ambrosia artemisiifolia; BBCH 12-14, Saflufenacil 1, Clethodim 30 g ai/ha): 80%
% Herbicidal activity (Ambrosia artemisiifolia; [15]): 80%
% Herbicidal activity (Ambrosia artemisiifolia; BBCH 12-14, Saflufenacil 1, Tribenuron-methyl 6 g ai/ha): 80%
% Herbicidal activity (Polygonum aviculare; [16]): 75%
% Herbicidal activity (Polygonum aviculare; [5]): 3%
% Herbicidal activity (Sorghum halepense; BBCH 12-14, Saflufenacil 4, Bifenox 168 g ai/ha): 60%
% Herbicidal activity (Sorghum halepense; [7]): 60%
% Herbicidal activity (Sonchus arvensis; [16]): 98%
% Herbicidal activity (Hibiscus trionum; [16]): 80%
% Herbicidal activity (Hibiscus trionum; [11]): 80%
% Herbicidal activity (Abutilon theophrasti; [14]): 90%
% Herbicidal activity (Abutilon theophrasti; BBCH 12-14, Saflufenacil 2, Fomesafen 1 g ai/ha): 70%
% Herbicidal activity (Echinochloa crus-galli; BBCH 12-14, Saflufenacil 4, Fomesafen 123 g ai/ha): 85%
% Herbicidal activity (Convolvulus arvensis; [16]): 30%
% Herbicidal activity (Convolvulus arvensis; BBCH 12-14, Saflufenacil 0.5, Halauxifen 1 g ai/ha): 30%
% Herbicidal activity (Convolvulus arvensis; [14]): 80%
% Herbicidal activity (Papaver rhoeas; [17]): 95%
% Herbicidal activity (Erigeron canadensis; [5]): 90%
% Herbicidal activity (Matricaria chamomilla; [16]): 45%
% Herbicidal activity (Matricaria chamomilla; [5]): 45%
% Herbicidal activity (Matricaria chamomilla; [15]): 45%
% Herbicidal activity (Matricaria chamomilla; BBCH 12-14, Saflufenacil 2, Halauxifen 1 g ai/ha): 98%
% Herbicidal activity (Mercuralis annua; [17]): 60%
% Herbicidal activity (Chenopodium album; BBCH 12-14, Saflufenacil 4, Clethodim 30 g ai/ha): 95%
